Measurements published in US20250313574A1, “SIALIC ACID DERIVATIVES AND METHODS OF USING SAME” (EISAI R&D MANAGEMENT CO., LTD., priority 2022, published 2025).
pEC50: −log10 of the molar value.

Key:
[1] = molecular target: Recombinant human CD33 protein (Homo sapiens (Human), UniProt P20138); assay: CD33 competitive binding assay for HTS drug screen (fluorescent multivalent sialic acid probe)
Summary of the method: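 Recombinant human CD33, coated overnight at 4° C from 10 μg/ml in pH 5.5 acetate, was preincubated briefly with compound. It was then exposed to a multivalent neutravidin/FITC/sialic acid analog A-375 probe (final 5 μM neutravidin, 15 μM A-375, 5 μM FITC) for 30 min at room temperature. After washing, bound FITC fluorescence was read.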

[2] = molecular target: Recombinant Human Siglec-3/CD33 protein (His-CD33) (Homo sapiens (Human), UniProt P20138); assay: Differential scanning fluorimetry (DSF) thermal shift assay; format: binding
Procedure: In the DSF assay, as the temperature increases, the protein gets gradually unfolded, exposing hydrophobic regions in which a fluorescent dye binds causing the fluorescence signal to increase. The midpoint of the unfolding transitions is called the thermal melt (Tm) or denaturation temperature and the Tm was defined as the peak apex in the derivative curve. Here, the Tm temperature of CD33 in the presence and absence of A-001 at a concentration of 50 μM was examined.
Recombinant Human Siglec-3/CD33 protein was purchased from Acros (catalog no. CD3-H5226) and reagents used in this study are shown in the Table 1 below.
Lyophilized CD33 protein was received in 1 mg aliquots from Acros. The protein was diluted with 2.5 mL of sterile water to a concentration of 400 μg/mL (14.5 μM), aliquoted into 138 μL aliquots and stored as at −20° C. On the day of analysis, the protein was thawed and […] solution was diluted to […] using buffer containing 133 mM NaCl, 133 mM phosphate buffered solution and 13.9× Sypro Orange dye in water in a quantity to cover the amount of samples tested on the day of the analysis.
200 μM stock solutions of A-001 containing 0.2% DMSO in water was supplied by compound management in a 384-well plate format.
Sample matrix were prepared by adding 7.5 μL of the protein buffer stock solution followed by addition of 2.5 μL of the 200 μM compound solutions in 384-well PCR plates to give a final volume of 10 μL per well consisting of 0.5 μM CD33 protein, 100 mM phosphate buffered solution pH 7.4, 100 mM NaCl, 10× SYPRO orange dye and 50 μM compound concentration (final DMSO concentration ˜0.2%). Using the Applied Biosystems® Protein Thermal Shift software (algorithm version 1.3.), the denaturation temperature or thermal melt (Tm) of the unbound and ligand bound CD33 protein was automatically assigned and the difference in thermal melt (ΔTm D) was calculated using the derivative curve by the Protein Thermal Shift software.
Recombinant human CD33 protein (0.5 μM) was incubated under buffered conditions in the presence of SYPRO orange dye, a temperature gradient was applied and a thermogram was produced by monitoring the fluorescence. The Tm was defined as the peak apex in the derivative curve in the study. […] Addition of […] of A-001 (Blue lines) to the CD33 protein induced significant Tm increases (ΔTm D) of 12.2±0.7° C.

[3] = thermal melt shift of 0.5 μM CD33 protein with 50 μM compound
[4] = difference in thermal melt of CD33 protein (0.5 μM) with 50 μM compound

Recombinant human CD33 protein, sequence (P20138 18-259): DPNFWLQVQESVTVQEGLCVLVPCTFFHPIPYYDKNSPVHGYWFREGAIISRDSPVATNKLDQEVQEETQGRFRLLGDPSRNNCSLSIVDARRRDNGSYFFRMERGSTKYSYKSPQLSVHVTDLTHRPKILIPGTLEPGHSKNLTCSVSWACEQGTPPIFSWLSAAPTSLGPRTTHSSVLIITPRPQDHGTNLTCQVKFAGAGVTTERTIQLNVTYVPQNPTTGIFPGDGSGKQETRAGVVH
Recombinant Human Siglec-3/CD33 protein (His-CD33), sequence (P20138 18-259): as above

| SMILES | pEC50 [1] | DSF (dTmD) [2, 3] | DSF (dTmD) [2, 4] |
| --- | --- | --- | --- |
| CC(=O)N[C@H]1[C@H]([C@H](O)[C@H](O)CNC(=O)c2cc(C)c3[nH]ncc3c2)O[C@@](CCN2CCOC[C@@]23CCN(C(=O)OC(C)(C)C)C3)(C(=O)O)C[C@@H]1O [A-111] | 7.80 | 12.5 | – |
| C/C=C/C=C/C(=O)NC[C@@H](O)[C@@H](O)[C@@H]1O[C@@](CCN2CCOC[C@@]23CCN(C(=O)OC(C)(C)C)C3)(C(=O)O)C[C@H](O)[C@H]1NC(C)=O [A-163] | 6.15 | 5.7 | – |
| Cc1cc(C(=O)NC[C@@H](O)[C@@H](O)[C@@H]2O[C@@](C/C=C/c3cccc(CNC(=O)c4cccc(Cl)c4)c3)(C(=O)O)C[C@H](O)[C@H]2NC(=O)Cn2cc(C3CCCCC3)nn2)cc(C)c1O [A-262] | 5.22 | – | 1.9 °C |
| Cc1cc(C(=O)NC[C@@H](O)[C@@H](O)[C@H]2C[C@@H](O)C[C@](CCN3CCOC[C@@]34CCN(C(=O)OC(C)(C)C)C4)(C(=O)O)O2)cc(C)c1O [A-202] | 6.51 | – | 5.46 °C |
| CC(=O)N[C@H]1[C@H]([C@H](O)[C@H](O)CNC(=O)c2cc(C)c(O)c(C)c2)O[C@@](CCN2CCOC[C@@]23CCN(C(=O)NC24CC5CC(CC(C5)C2)C4)C3)(C(=O)O)C[C@@H]1O [A-049] | 7.39 | 13.5 | – |
| CC(=O)N[C@H]1[C@H]([C@H](O)[C@H](O)CNC(=O)c2cc(C)c(O)c(C)c2)O[C@@](CCN2CCOC[C@@]23CCN(C(=O)c2ccc(C)cc2)C3)(C(=O)O)C[C@@H]1O [A-099] | 6.47 | 7.3 | – |
| CC(=O)N[C@H]1[C@H]([C@H](O)[C@H](O)CNC(=O)c2c[nH]c(C)n2)O[C@@](CCN2CCOC[C@@]23CCN(C(=O)OC(C)(C)C)C3)(C(=O)O)C[C@@H]1O [A-139] | 6.21 | 6.2 | – |
| CC(=O)N[C@H]1[C@H]([C@H](O)[C@H](O)CNC(=O)c2cc(F)c(C(F)(F)F)c(F)c2)O[C@@](CCN2CCOC[C@@]23CCN(C(=O)OC(C)(C)C)C3)(C(=O)O)C[C@@H]1O [A-166] | 5.40 | 6.9 | – |
| CC(=O)N[C@H]1[C@H]([C@H](O)[C@H](O)CNC(=O)c2cc(C)c(O)c(C)c2)O[C@@](CCN2CCOCC2(C)CNC(=O)OC(C)(C)C)(C(=O)O)C[C@@H]1O (some centres unmarked) [A-009] | 5.70 | 6.1 | – |
| CC(=O)N[C@H]1[C@H]([C@H](O)[C@H](O)CNC(=O)c2cc(C)c(O)c(C)c2)O[C@@](C/C=C/c2cccc(CNC(=O)c3ccc4[nH]c5c(c4c3)CCC(=O)N5C)c2)(C(=O)O)C[C@@H]1O [A-254] | 6.71 | – | 9.2 °C |
| CC(=O)N[C@H]1[C@H]([C@H](O)[C@H](O)CNC(=O)c2ccc(C)c(C(F)(F)F)c2)O[C@@](CCN2CCOC[C@@]23CCN(C(=O)OC(C)(C)C)C3)(C(=O)O)C[C@@H]1O [A-145] | 6.21 | 9.6 | – |
| CC(=O)N[C@H]1[C@H]([C@H](O)[C@H](O)CNC(=O)c2cc(C)c(O)c(C)c2)O[C@@](CCN2CC(=O)N(C)C[C@@]23CCN(C(=O)OC(C)(C)C)C3)(C(=O)O)C[C@@H]1O [A-016] | 7.47 | 9.7 | – |
| Cc1cc(C(=O)NC[C@@H](O)[C@@H](O)[C@@H]2O[C@@](CC3OC(C)(C)O[C@H]3c3cccc(NC(=O)OC(C)(C)C)c3)(C(=O)O)C[C@H](O)[C@H]2NC(=O)Cn2cc(C3CCCCC3)nn2)cc(C)c1O (some centres unmarked) [A-299] | 6.29 | – | 8.0 °C |
| CC(=O)N[C@H]1[C@H]([C@H](O)[C@H](O)CNC(=O)c2cc(C)c(O)c(C)c2)O[C@@](C/C=C/c2cccc(CNC(=O)C3CCC(Nc4cnccn4)CC3)c2)(C(=O)O)C[C@@H]1O (some centres unmarked) [A-247] | 6.45 | – | 8.5 °C |
| CC(=O)N[C@H]1[C@H]([C@H](O)[C@H](O)CNC(=O)c2ccc3ncccc3n2)O[C@@](CCN2CCOC[C@@]23CCN(C(=O)OC(C)(C)C)C3)(C(=O)O)C[C@@H]1O [A-114] | 7.66 | 12.4 | – |
| CC(=O)N[C@H]1[C@H]([C@H](O)[C@H](O)CNC(=O)c2cc(C)c(O)c(C)c2)O[C@@](CCN2CCOC[C@@]23CCN(C(=O)N2CCCC2)C3)(C(=O)O)C[C@@H]1O [A-062] | 6.08 | 7.2 | – |
| CC(=O)N[C@H]1[C@H]([C@H](O)[C@H](O)CNC(=O)c2cc(Br)c(O)c(Br)c2)O[C@@](CCN2CCOC[C@@]23CCN(C(=O)OC(C)(C)C)C3)(C(=O)O)C[C@@H]1O [A-115] | 8.15 | 15.1 | – |
| CC(=O)N[C@H]1[C@H]2O[C@](C(=O)O)(C/C=C/c3cccc(c3)[C@@H](NC(=O)[C@@H]3CCCOC3)CCCCOc3c(C)cc(cc3C)C(=O)NC[C@@H](O)[C@H]2O)C[C@@H]1O [A-349] | 5.28 | – | 5.5 °C |
| CC(=O)N[C@H]1[C@H]2O[C@](C(=O)O)(C/C=C/COC[C@@H](NC(=O)OC(C)(C)C)COCCCOc3c(C)cc(cc3C)C(=O)NC[C@@H](O)[C@H]2O)C[C@@H]1O [A-343] | 5.18 | – | 4.6 °C |
| CC(=O)N[C@H]1[C@H]([C@H](O)[C@H](O)CNC(=O)c2cc(C)c(O)c(C)c2)O[C@@](C/C=C/c2ccccc2CNC(=O)OC(C)(C)C)(C(=O)O)C[C@@H]1O [A-288] | 5.57 | – | 5.3 °C |
| CC(=O)N[C@H]1[C@H]([C@H](O)[C@H](O)CNC(=O)c2cc(C)c(O)c(C)c2)O[C@@](C[C@H]2COCC3(CCN(C(=O)OC(C)(C)C)CC3)N2)(C(=O)O)C[C@@H]1O [A-231] | 5.85 | – | 5.2 °C |
| Cc1cc(C(=O)NC[C@@H](O)[C@@H](O)[C@@H]2O[C@@](C/C=C/c3cccc(CNC(=O)OC(C)(C)C)c3)(C(=O)O)C[C@H](O)[C@H]2NC(=O)Cn2cc(C3CCCCC3)nn2)cc(C)c1O [A-285] | 5.00 | – | 9.0 °C |
| CC(=O)N[C@H]1[C@H]([C@H](O)[C@H](O)CNC(=O)c2ccc3occc3c2)O[C@@](CCN2CCOC[C@@]23CCN(C(=O)OC(C)(C)C)C3)(C(=O)O)C[C@@H]1O [A-137] | 7.12 | 12.7 | – |
| CC(=O)N[C@H]1[C@H]([C@H](O)[C@H](O)CNC(=O)c2cc(C)c(O)c(C)c2)O[C@@](CC2OC(C)(C)O[C@H]2c2ccc(F)c(N3CCCC3=O)c2)(C(=O)O)C[C@@H]1O (some centres unmarked) [A-317] | 6.04 | – | 6.5 °C |
| CC(=O)N[C@H]1[C@H]([C@H](O)[C@H](O)CNC(=O)c2cc(C)n(C)n2)O[C@@](CCN2CCOC[C@@]23CCN(C(=O)OC(C)(C)C)C3)(C(=O)O)C[C@@H]1O [A-154] | 6.86 | 9.3 | – |
| CC(=O)N[C@H]1[C@H]([C@H](O)[C@H](O)CNC(=O)c2ccc3[nH]nc(F)c3c2)O[C@@](CCN2CCOC[C@@]23CCN(C(=O)OC(C)(C)C)C3)(C(=O)O)C[C@@H]1O [A-128] | 7.30 | 11.5 | – |
| CC(=O)N[C@H]1[C@H]([C@H](O)[C@H](O)CNC(=O)c2ccc3[nH]nnc3c2)O[C@@](CCN2CCOC[C@@]23CCN(C(=O)OC(C)(C)C)C3)(C(=O)O)C[C@@H]1O [A-178] | 6.84 | 9.5 | – |
| Cc1cc(C(=O)NC[C@@H](O)[C@@H](O)[C@@H]2O[C@@](C/C=C/c3cccc(CNC(=O)C4CCC[C@H](NS(C)(=O)=O)C4)c3)(C(=O)O)C[C@H](O)[C@H]2NC(=O)Cn2cc(C3CCCCC3)nn2)cc(C)c1O (some centres unmarked) [A-282] | 5.77 | – | 6.2 °C |
